The values below are quoted from earlier work in publication PMC2074590 (British Journal of Cancer, 1996).

One data set concerns breast cancer cells. On the set-up: method as in Wakeling and Bowler, 1987, 1988. The note with it: ref Wakeling and Bowler, 1987, 1988; cited from earlier work.
A further data set concerns advanced breast cancer. The note with it: ref Cole et al., 1971, Patterson et al., 1981; cited from earlier work.
The test system of data set [1] is Ki67, ER, PgR, pS2 in primary breast cancer. The note with it: similar clinical experiments; ref Howell et al., 1988; Roberston et al., 1991; Clarke et al., 1993; Nicholson et al., 1994; cited from earlier work.
For data set [2] the following is noted: ref Willemse et al., 1990; cited from earlier work.

With `CCCCN(C)C(=O)CCCCCCCCCC[C@@H]1Cc2cc(O)ccc2[C@H]2CC[C@]3(C)[C@@H](O)CC[C@H]3[C@H]12` [ICI 164384, reference compound], the “Potency as inhibitor of cell growth in vitro relative to tamoxifen” value in the data set on breast cancer cells is given as “up to two orders of magnitude more potent than tamoxifen”.
On to `CC/C(=C(\c1ccccc1)c1ccc(OCCN(C)C)cc1)c1ccccc1` [tamoxifen, reference compound], for which the “Median duration of remission” value in the data set on advanced breast cancer is “about 18 months”. Besides, in data set [1], the ER expression result is “no change in ER expression” and the PgR expression result was “slightly increased PgR expression”.
Regarding `CC(=O)O[C@]1(C(C)=O)CC[C@H]2[C@@H]3C=C(C)C4=CC(=O)CC[C@]4(C)[C@H]3CC[C@@]21C` [megestrol acetate], the “Patients with weight gain of > 5% of body weight” value in data set [2] is listed as 25%.
